# Patent US8791163B2 (McGill University, priority 2006, dated 2014)
# Values joined by “and” are separate entries in the source; they are usually repeats but may differ in a detail not shown here. Equal values may be shown once. “Also recorded” adds a separate entry of the source. Read-outs that look alike come from different tables or passages of the source.
# Legend:
# [1] = biological target: T1, cloned human MT1 receptors (Homo sapiens, UniProt P48039); experiment: 2-[125I]iodomelatonin competition binding, human MT1 in NIH3T3 cells; settings: calculated from IC50 by Cheng-Prusoff, mean of at least three determinations
# T1 construct: expressed in transfected cells
# Description: (§1) Membranes were incubated for 90 min at 37° C. in binding buffer (Tris/HCl 50 mM, pH 7.4). The final membrane concentration was 5-10 μg of protein per tube. […] The pKi values are the mean of at least three independent determinations performed in duplicate. To define the functional activity of the compounds of Formula (I) at the MT1 and MT2 receptor subtypes, [^35S]GTPγS binding assays in NIH3T3 cells expressing human-cloned MT1 or MT2 receptors were performed. The amount of bound [^35S]GTPγS is proportional to the level of analogue-induced G-protein activation and is related to the intrinsic activity of the compound (i.e. a compound of Formula (I)) under study. […] Nonspecific binding was assessed using non-radiolabeled GTPγS (10 μM). […] Basal stimulation is the amount of [^35S]GTPγS specifically bound in the absence of the compounds of Formula (I) and was taken as 100%. […] All of the measurements were performed in triplicate.
# [2] = biological target: T2, cloned human MT2 receptors (Homo sapiens, UniProt P49286); experiment: 2-[125I]iodomelatonin competition binding, human MT2 in NIH3T3 cells; settings: human MT2 in NIH3T3 cells; calculated from IC50 by Cheng-Prusoff; mean of at least three determinations
# T2 construct: expressed in transfected cells
# T2 sequence (P49286 1-362): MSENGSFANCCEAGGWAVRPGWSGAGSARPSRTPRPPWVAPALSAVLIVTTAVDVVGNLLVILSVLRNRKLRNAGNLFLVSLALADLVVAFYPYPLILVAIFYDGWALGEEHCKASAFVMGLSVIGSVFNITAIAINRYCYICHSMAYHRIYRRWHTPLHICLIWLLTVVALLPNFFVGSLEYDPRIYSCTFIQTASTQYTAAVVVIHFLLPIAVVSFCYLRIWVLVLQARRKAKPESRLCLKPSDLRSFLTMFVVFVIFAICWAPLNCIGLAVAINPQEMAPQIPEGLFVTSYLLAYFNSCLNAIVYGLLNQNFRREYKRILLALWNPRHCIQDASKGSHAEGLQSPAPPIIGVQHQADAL
# Description: as §1
# [3] = biological target: T1, cloned human MT1 receptors; experiment: [35S]GTPγS binding assay, NIH3T3 cells expressing human MT1; type: biochemical; settings: for MT1 IAr ± SEM (relative intrinsic activity): maximal net effect relative to MLT; on MT1 Activity: key: A = agonist; PA = partial agonist; ANT = antagonist; IA = Inverse agonist
# Description: as §1
# [4] = biological target: T2, cloned human MT2 receptors; experiment: [35S]GTPγS binding assay, NIH3T3 cells expressing human MT2; type: biochemical; settings: for MT2 IAr ± SEM (relative intrinsic activity): maximal net effect relative to MLT; on MT2 Activity: key: A = agonist; PA = partial agonist; ANT = antagonist; IA = Inverse agonist
# Description: as §1
# [5] = tested on: Adult Sprague Dawley rats; experiment: Elevated plus maze (EPM); type: in vivo, rat; settings: diazepam 2 mg/kg, injected 45 min before test
# Description: The maze is comprised of two open arms (50×10 cm) and two closed arms (50×10×40 cm) that extend from a common central platform (10×10 cm). The apparatus, made of wood (painted black) was elevated to a height of 80 cm above floor level. The closed arms are located opposite one another. Behavior is recorded over a period of 5 min using a video camera positioned directly above the maze and rated by an observer blind to drug conditions. The major measure of interest is the amount of time spent in the open arms. As an index of general activity and distribution, the total number of entries into both open and closed arms was also recorded. […] In order to increase the sensitivity of this test to anxiolytic activity, tests are carried out under normal room illumination (25 W bulb).
# [6] = tested on: Sprague Dawley rats; experiment: Novelty-Induced Suppressed Feeding (NSF) Test; type: in vivo, rat; settings: diazepam 2 mg/kg s.c., 45 min before the test
# Description: The NSF test is used to assess the anti-anxiety effect of a drug [Bodnoff et al. Psychopharmacology 1988, 95(3), 298-307]. Sprague Dawley rats were used in the NSF test. The testing apparatus comprises a brightly lit open area covered with lab chow pellets. Forty-eight hours prior to behavioral testing, all food was removed from the apparatus. Animals treated with compound 5b (40 or 80 mg/kg) were injected 60 min before the test, whereas animals treated with vehicle (DMSO/saline 7:3) or diazepam were injected 45 min before the test. The drugs were administered subcutaneously and the experiments were conducted after 5:30 PM. The latency to feed, defined as chewing the food as opposed to merely sniffing or playing with a pellet, was then recorded (Table 6). The experiment was terminated for those animals that had not begun eating within a period of 360 seconds, which animals were assigned a latency score of 360 seconds. All analyses were conducted using Sigma Stats and SPSS software. The results are expressed as the mean±SEM per n (number) animals tested (*, p<0.01, ANOVA or t test).
# [7] = tested on: Male rats (Sprague-Dawley); experiment: EEG and EMG sleep recordings (slow wave sleep, REM sleep, wakefulness); type: in vivo, rat
# Description: Male rats (Sprague-Dawley) weighing approximately 300-340 g were used for surgical implantation of electroencephalogram (EEG) and electromyogram (EMG) electrodes. Following the recovery from surgery, the animals were housed separately in cages and kept on a 12-hour light/dark cycle (12 h light-12 h dark, 7:30 AM lights on) at a controlled temperature (21° C.). The rats had free access to food and water ad libitum.
# Rats were anaesthetized using equithesin (425 mg chloral hydrate, 1 ml 100% ethanol, 98 mg pentobarbitone, 213 mg magnesium sulphate and 3 ml propylene glycol, sterile water per 10 ml of solution; 1 ml per 300 g body weight i.p.) and placed in a stereotactic frame. The skull was exposed and carefully cleaned. Two stainless-steel epidural electrodes were implanted for the registration of the EEG under stereotactic control, through 1.5 mm burr holes at the coordinates corresponding to the right parietal-occipital cortex (AP=−2 mm L=3 mm; AP=−7 mm L=3 mm) and the left parietal-occipital cortex (AP=−4.5 mm L=3 mm) according to the atlas by Paxinos (The Rat Brain in Stereotaxic Coordinates, Academic Press, 1995). Three stainless steel wire electrodes, isolated except for the last few millimeters, were implanted into the neck muscles (two bilaterally and one in the middle) for the monitoring of the EMG. The EEG epidural electrodes and the EMG wires were fitted to a six-pin female connector. For fixation to the skull, the wires and connector were covered with dental acrylic (Coltene/Whaledent Inc. USA). The animals were allowed to recover from the surgery for at least 3-4 days.
# Twenty-four hours (24 h) following the surgery, the rats were placed in the recording room from noon to 9:00 PM, for 3-4 days. The rats were connected to the 6-flat cable (3M), in a freely-moving manner, from 6:00 PM to 9:00 PM for habituation. No recordings were performed at this time, however, the tolerance to the cable and the sleep behavior were observed.
# Following 3-4 days of habituation, the rats received the injection of a vehicle (DMSO/saline 7:3, 0.2 ml s.c.) at 6:00 PM and the recording was carried out until 9:00 PM. On the following day the rats received diazepam (2 mg/kg, s.c.) at 6:00 PM and the recording was performed until 9:00 PM. Four days following the injection of diazepam, the rat received 5b (40 mg/kg s.c.) and the recording also performed from 6 to 9 PM.
# For each experiment, a rat was placed individually in the cage and monitoring of the signal was carried out via the attachment of a non-restraining 6-wire flat cable and a female connector, which was connected to an impedance transformer with a gain of 10, located above the cage. The EEG signal was amplified (resulting in a total gain of 10,000) and locally filtered. The EMG signal was amplified as the EEG, (EEG: low filter 1.0 Hz; high 1 KHz, EMG: low filter 30.0 Hz; high 3 KHz). The power spectra analysis was performed for identification of the sleep stages. The behavior of the animals was observed during the experiment (eye movements, ambulation, rearing etc.).
# The three classical vigilance-sleep states described in the rat were discriminated on the basis of the cortical EEG and neck EMG, following the classification by Ruigt et al. (Electroencephalography and clinical Neurophysiology, 1989, 73: 52-63). Wakefulness was identified by a low-amplitude and desynchronized EEG with sustained EMG activity. Slow wave sleep (SWS, includes Quiet sleep, deep sleep and Pre-REM) was clearly distinguished by high-voltage delta waves (2-4 Hz) and spindles associated with a […] EMG activity. Pre-REM sleep was characterized by a clear theta rhythm in the EEG, frequently alternating with short lasting, high voltage spindles. REM sleep was characterized by a low-amplitude EEG with a pronounced theta rhythm (5.5-8.5 Hz), a complete loss of muscle tone, and a low voltage EMG. […]
# [8] = diazepam 2 mg/kg s.c., Mean ± SEM of 11 rats
# [9] = diazepam 2 mg/kg s.c., Mean ± SEM of 11 rats, listed as diazepam
# [10] = diazepam 2 mg/kg s.c., individual rats 1-11
# T1 sequence (P48039 whole entry): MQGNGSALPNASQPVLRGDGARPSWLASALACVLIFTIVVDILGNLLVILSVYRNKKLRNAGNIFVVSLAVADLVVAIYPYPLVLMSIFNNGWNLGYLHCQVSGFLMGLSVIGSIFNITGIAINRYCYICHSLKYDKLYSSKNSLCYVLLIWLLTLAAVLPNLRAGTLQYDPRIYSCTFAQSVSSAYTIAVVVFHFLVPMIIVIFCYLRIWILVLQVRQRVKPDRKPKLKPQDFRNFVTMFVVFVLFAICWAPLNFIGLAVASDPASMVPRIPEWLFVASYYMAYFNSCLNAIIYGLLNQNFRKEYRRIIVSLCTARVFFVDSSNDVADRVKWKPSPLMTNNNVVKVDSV
compound,measurement,setting,value
"CC(=O)NCCN(c1ccccc1)c1ccccc1 [5a, N-[2-(diphenylamino)ethyl]acetamide]",MT1 pKi,[1],6.90 ± 0.04
same,MT2 pKi,[2],8.41 ± 0.13
same,MT1 Activity,[3],ANT
same,MT1 IAr ± SEM (relative intrinsic activity),[3],0.10 ± 0.03
same,MT2 IAr ± SEM (relative intrinsic activity),[4],0.57 ± 0.04
same,melting point,,44 to 45 °C
"COc1ccc(N(CCNC(C)=O)c2ccccc2)cc1 [5e, N-{-2-[(4-Methoxyphenyl)-phenylamino]ethyl}acetamide]",MT1 pKi,[1],6.11 ± 0.12
same,MT2 pKi,[2],7.56 ± 0.10
same,MT1 Activity,[3],ANT
same,MT1 IAr ± SEM (relative intrinsic activity),[3],0.02 ± 0.01
same,MT2 Activity,[4],ANT
same,MT2 IAr ± SEM (relative intrinsic activity),[4],0.06 ± 0.03
same,melting point,,102 to 104 °C
"COc1cccc(N(C)CCNC(C)=O)c1 [5j, N-{2-[(3-Methoxyphenyl)-methylamino]ethyl}acetamide]",MT1 pKi,[1],9.09 ± 0.10
same,MT2 pKi,[2],9.19 ± 0.01
same,MT1 IAr ± SEM (relative intrinsic activity),[3],0.95 ± 0.08
same,MT2 IAr ± SEM (relative intrinsic activity),[4],1.06 ± 0.05
same,melting point,,69 to 71 °C
CN1C(=O)CN=C(c2ccccc2)c2cc(Cl)ccc21 [Diazepam],Head Dips,[5],11.37 ± 2.12 (P = 0.01)
same,Percentage of time in Closed Arms,[5],67.75 ± 5.87 (P = 0.007) %
same,Percentage of time in Open Arms,[5],32.25 ± 5.9 (P = 0.006) %
same,Total time duration in the Closed Arms,[5],178.71 ± 18.16 (P = 0.006) sec/closed arm
same,Total time duration in the Open Arms,[5],122.0 ± 18.0 (P = 0.008) sec/open arm
same,Head Dips,[5]; listed as diazepam,increase in the number of head dips
same,Latency (sec) to feed,[6],36.10 ± 15.32 (P ≦ 0.001)* sec
same,Latency (sec) to feed,[6]; listed as diazepam,decreased latency to feed
same,Slow Wave Sleep Duration,[7],58.45 min and 89.15 min and 84 min and 105.18 min and 99.03 min and 103.14 min and 92.36 min and 114.55 min and 94.85 min and 88.22 min and 83.9 min
same,Slow Wave Sleep Latency,[7],18.02 min and 3.98 min and 8.25 min and 2.86 min and 6.93 min and 3.06 min and 18.42 min and 13.59 min and 22.5 min and 6.51 min and 26.36 min
same,Wakefulness Duration,[7],69.58 min and 73.27 min and 68.04 min and 83.4 min and 62.00 min and 82.58 min and 85.76 min and 66.32 min and 115.52 min and 71.04 min and 80.79 min
same,REM Sleep Duration,[7]; [8],6.5 ± 0.7 min
same,REM Sleep Latency,[7]; [8],74.5 ± 5.2 min
same,REM Sleep Mean of a Single Episode,[7]; [8],1.43 ± 0.11 min
same,REM Sleep Number (episodes),[7]; [8],4.6 ± 0.5 episodes
same,Slow Wave Sleep Duration,[7]; [8],92.0 ± 4.4 min
same,Slow Wave Sleep Mean of a Single Episode,[7]; [8],5.4 ± 0.38 min
same,Slow Wave Sleep Number (episodes),[7]; [8],18.0 ± 1.6 episodes
same,Wakefulness Duration,[7]; [8],78.2 ± 4.43 min
same,Wakefulness Mean of a Single Episode,[7]; [8],2.7 ± 0.84 min
same,Wakefulness Number (episodes),[7]; [8],17.0 ± 1.52 episodes
same,REM Sleep Duration (min),[7]; [9],significantly decreases
same,REM Sleep Latency (min),[7]; [9],significantly increases
same,REM Sleep Number (episodes),[7]; [9],significantly decreases
same,Slow Wave Sleep Duration (min),[7]; [9],increase the duration of the SWS; also recorded: significantly increases
same,Slow Wave Sleep Latency (min),[7]; [9],significantly decreases
same,Slow Wave Sleep Mean of a Single Episode (min),[7]; [9],significantly increase
same,Slow Wave Sleep Number (episodes),[7]; [9],no influence
same,Wakefulness Duration (min),[7]; [9],significantly decreases
same,Wakefulness Number (episodes),[7]; [9],no influence
same,REM Sleep Duration,[7]; [10],6.04 min and 5.45 min and 12.03 min and 5.18 min and 7.71 min and 8.81 min and 4.23 min and 5.86 min and 2.55 min and 8.52 min and 5.62 min
same,REM Sleep Latency,[7]; [10],102.43 min and 56.83 min and 56.59 min and 96.4 min and 61.69 min and 93.4 min and 72.26 min and 86.41 min and 58.92 min and 73.3 min and 61.33 min
same,REM Sleep Mean of a Single Episode,[7]; [10],1.51 min and 1.816 min and 1.718 min and 1.295 min and 1.542 min and 0.978 min and 1.05 min and 1.465 min and 0.85 min and 2.13 min and 1.405 min
same,REM Sleep Number (episodes),[7]; [10],4 episodes (6×) and 3 episodes (2×) and 7 episodes and 5 episodes and 9 episodes
same,Slow Wave Sleep Mean of a Single Episode,[7]; [10],6.49 min and 7.42 min and 3.11 min and 5.53 min and 4.3 min and 5.15 min and 4.39 min and 4.98 min and 6.77 min and 5.18 min and 6.45 min
same,Slow Wave Sleep Number (episodes),[7]; [10],9 episodes and 12 episodes and 27 episodes and 19 episodes and 23 episodes (2×) and 20 episodes and 21 episodes and 14 episodes and 17 episodes and 13 episodes
same,Wakefulness Mean of a Single Episode,[7]; [10],12.83 min and 5.92 min and 4.03 min and 3.66 min and 3.05 min and 4.00 min and 3.79 min and 2.69 min and 5.5 min and 5.71 min and 6.02 min
same,Wakefulness Number (episodes),[7]; [10],9 episodes and 12 episodes and 20 episodes and 19 episodes and 24 episodes and 17 episodes and 22 episodes and 23 episodes and 15 episodes (2×) and 11 episodes
